Test results: patent publication US10457637B2, “Benzenesulfonamide derivatives as inverse agonists of retinoid-related orphan receptor gamma (RORγ(T))” (GALDERMA RESEARCH & DEVELOPMENT, priority 2014, dated 2019)

Biological target: ROR gamma ligand-binding domain (hRORg) (Homo sapiens (Human), UniProt P51449)
Assay: GAL4-RORγ transactivation (luciferase reporter, HG5LN HeLa line)
Format: cell-based
Settings: 18 hours incubation
Description: GAL4-RORγ Transactivation
The RORγ transactivation model was developed from the line HG5LN, which is a HeLa line that stably expresses a luciferase reporter gene controlled by a pentamer of the GAL4 recognition domain of yeast and of a β-globin promoter. The HG5LN line was stably transfected by the DNA-binding domain (DBD) of GAL4 fused to the ROR gamma ligand-binding domain (LBD). Molecules that inhibit the ROR gamma constitutive activity reduce the luciferase expression, thus leading to a reduction in the emitted luminescence.
The cells are seeded in 384-well plates (5000 cells in 45 μL/well of culture medium containing 10% fetal calf serum) and incubated for 4 hours at 37° C., 5% CO2. 5 μL of the test molecules (compounds described in the tables described above) are then added to each well and the plates are incubated for 18 hours at a temperature of 37° C. under 5% of CO2. 20 μL of luciferase substrate (Promega) are added to each well and the luminescence emitted is read by a microplate reader.
The luminescence units (“RLU”) are normalized by positive controls (“POS” containing a saturated concentration of benzenesulfonamide, N-(2,2,2-trifluoroethyl)-N-[4-[2,2,2-trifluoro-1-hydroxy-1-(trifluoromethyl)ethyl]phenyl]) and negative controls (“NEG” containing DMSO): % inhibition=((RLU−NEG)*100)/(POS−NEG). The IC50 values are calculated from a 4-parameter logistic model using the XLFit software (IDBS).

Chain of ROR gamma ligand-binding domain (hRORg) (P51449 269-508): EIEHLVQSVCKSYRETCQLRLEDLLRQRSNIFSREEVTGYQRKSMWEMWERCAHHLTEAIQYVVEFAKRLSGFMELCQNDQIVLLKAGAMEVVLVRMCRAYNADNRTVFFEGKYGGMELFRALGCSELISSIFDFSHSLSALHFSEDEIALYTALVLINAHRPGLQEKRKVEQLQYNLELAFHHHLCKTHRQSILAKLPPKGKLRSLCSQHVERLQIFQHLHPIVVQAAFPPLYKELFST

Compound | IC50 [µM]
CCc1ccc(N(CC(C)C)S(=O)(=O)c2ccc(NCC3CCN(C(C)=O)CC3)c(S(C)(=N)=O)c2)cc1 (centres unmarked) [compound 84, 4-(((1-acetylpiperidin-4-yl)methyl)amino)-N-(4-ethylphenyl)-N-isobutyl-3-(S-methylsulfonimidoyl)benzenesulfonamide] | > 1
CCc1ccc(N(CC(C)C)S(=O)(=O)c2ccc(NC3CCC(=O)NC3)c(S(C)(=N)=O)c2)cc1 (centres unmarked) [compound 85, N-(4-ethylphenyl)-N-isobutyl-3-(S-methylsulfonimidoyl)-4-((6-oxopiperidin-3-yl)amino)benzenesulfonamide] | > 1
CCc1ccc(N(CC(C)C)S(=O)(=O)c2ccc(NCc3nonc3C)c(S(C)(=N)=O)c2)cc1 (centres unmarked) [compound 88, N-(4-ethylphenyl)-N-isobutyl-4-(((4-methyl-1,2,5-oxadiazol-3-yl)methyl)amino)-3-(S-methylsulfonimidoyl)benzenesulfonamide] | > 1
CCc1ccc(N(CC(C)C)S(=O)(=O)c2ccc(NCC3CN(C(=O)OC)C3)c(S(C)(=N)=O)c2)cc1 (centres unmarked) [compound 89, methyl 3-(((4-(N-(4-ethylphenyl)-N-isobutylsulfamoyl)-2-(S-methylsulfonimidoyl)phenyl)amino)methyl)azetidine-1-carboxylate] | > 1
CCc1ccc(N(CC(C)C)S(=O)(=O)c2ccc(NCc3ccnc(C)c3)c(S(C)(=N)=O)c2)cc1 (centres unmarked) [compound 90, N-(4-ethylphenyl)-N-isobutyl-4-(((2-methylpyridin-4-yl)methyl)amino)-3-(S-methylsulfonimidoyl)benzenesulfonamide] | > 1
CCc1ccc(N(CC(C)C)S(=O)(=O)c2ccc(NCC3CCN(C(=O)OC)CC3)c(S(C)(=N)=O)c2)cc1 (centres unmarked) [compound 93, methyl 4-(((4-(N-(4-ethylphenyl)-N-isobutylsulfamoyl)-2-(S-methylsulfonimidoyl)phenyl)amino)methyl)piperidine-1-carboxylate] | > 1
CCc1ccc(N(CC(C)C)S(=O)(=O)c2ccc(NCC3CCN(C(=O)OC)C3)c(S(C)(=N)=O)c2)cc1 (centres unmarked) [compound 94, methyl 3-(((4-(N-(4-ethylphenyl)-N-isobutylsulfamoyl)-2-(S-methylsulfonimidoyl)phenyl)amino)methyl)pyrrolidine-1-carboxylate] | > 1
CCc1ccc(N(CC(C)C)S(=O)(=O)c2ccc(NCC3CCNC(=O)C3)c(S(C)(=N)=O)c2)cc1 (centres unmarked) [compound 96, 4-N-(4-ethylphenyl)-N-isobutyl-3-(S-methylsulfonimidoyl)-4-(((2-oxopiperidin-4-yl)methyl)amino)benzenesulfonamide] | > 1
CCc1ccc(N(CC(C)C)S(=O)(=O)c2ccc(NCC3CCN(C(C)=O)C3)c(S(C)(=N)=O)c2)cc1 (centres unmarked) [compound 100, 4-(((1-acetylpyrrolidin-3-yl)methyl)amino)-N-(4-ethylphenyl)-N-isobutyl-3-(S-methylsulfonimidoyl)benzenesulfonamide] | > 1
CCc1ccc(N(CC(C)C)S(=O)(=O)c2ccc(NC[C@@H]3CNC(=O)O3)c(S(C)(=N)=O)c2)cc1 (stereo partly drawn) [compound 105, N-(4-ethylphenyl)-N-isobutyl-3-(S-methylsulfonimidoyl)-4-((((R)-2-oxooxazolidin-5-yl)methyl)amino)benzenesulfonamide] | > 1
CCc1ccc(N(CC(C)C)S(=O)(=O)c2ccc(NC[C@H]3CNC(=O)O3)c(S(C)(=N)=O)c2)cc1 (stereo partly drawn) [compound 106, N-(4-ethylphenyl)-N-isobutyl-3-(S-methylsulfonimidoyl)-4-((((S)-2-oxooxazolidin-5-yl)methyl)amino)benzenesulfonamide] | > 1
CCc1ccc(N(CC(C)C)S(=O)(=O)c2ccc(N3CCCC4(COC4)C3)c(S(C)(=N)=O)c2)cc1 (centres unmarked) [compound 109, N-(4-ethylphenyl)-N-isobutyl-3-(S-methylsulfonimidoyl)-4-(2-oxa-6-azaspiro[3.5]nonan-6-yl)benzenesulfonamide] | > 1

The next lines start with the values.

IC50 [µM] | Compound
> 1 | CCc1ccc(N(CC(C)C)S(=O)(=O)c2ccc(NCC3CCC(=O)NC3)c(S(C)(=N)=O)c2)cc1 (centres unmarked) [compound 58, N-(4-ethylphenyl)-N-isobutyl-3-(S-methylsulfonimidoyl)-4-(((6-oxopiperidin-3-yl)methyl)amino)benzenesulfonamide]
0.1 to 1 | CCc1ccc(N(CC(C)C)S(=O)(=O)c2ccc(NCC3CNC(=O)C3)c(S(C)(=N)=O)c2)cc1 (centres unmarked) [compound 59, N-(4-ethylphenyl)-N-isobutyl-3-(S-methylsulfonimidoyl)-4-(((5-oxopyrrolidin-3-yl)methyl)amino)benzenesulfonamide]
0.1 to 1 | CCc1ccc(N(CC(C)C)S(=O)(=O)c2ccc(NCC3CCOCC3)c(S(N)(=O)=O)c2)cc1 [compound 67, 4-[(tetrahydropyran-4-ylmethyl)amino]benzene-1,3-disulfonic acid 3-amide 1-[(4-ethylphenyl)isobutylamide]]
> 1 | CCc1ccc(N(CC(C)C)S(=O)(=O)c2ccc3c(c2)[S+]([O-])CCN3CC2CCOCC2)cc1 (centres unmarked) [compound 71, 1-oxo-4-(tetrahydropyran-4-ylmethyl)-1,2,3,4-tetrahydro-1λ^4-benzo[1,4]thiazine-7-sulfonic acid (4-ethylphenyl)isobutylamide]
0.1 to 1 | CCc1ccc(N(CC(C)C)S(=O)(=O)c2ccc3c(c2)sc(=O)n3CC2CCOCC2)cc1 [compound 72]
> 1 | CCc1ccc(N(CC(C)C)S(=O)(=O)c2ccc3c(c2)SC(C)(C)N3CC2CCOCC2)cc1 [compound 73, 2,2-dimethyl-3-(tetrahydropyran-4-ylmethyl)-2,3-dihydrobenzothiazole-6-sulfonic acid (4-ethylphenyl)isobutylamide]
0.1 to 1 | CCc1ccc(N(CC(C)C)S(=O)(=O)c2ccc3c(c2)[S+]([O-])C(C)(C)N3CC2CCOCC2)cc1 (centres unmarked) [compound 74, 2,2-dimethyl-1-oxo-3-(tetrahydropyran-4-ylmethyl)-2,3-dihydro-1H-1λ^4-benzothiazole-6-sulfonic acid (4-ethylphenyl)isobutylamide]
> 1 | CCc1ccc(N(CC(C)C)S(=O)(=O)c2ccc3c(c2)[S+]([O-])CN3CC2CCOCC2)cc1 (centres unmarked) [compound 75, 1-oxo-3-(tetrahydropyran-4-ylmethyl)-2,3-dihydro-1H-1λ^4-benzothiazole-6-sulfonic acid (4-ethylphenyl)isobutylamide]
> 1 | CCc1ccc(N(CC(C)C)S(=O)(=O)c2ccc3c(c2)S(=N)(=O)CN3CC2CCOCC2)cc1 (centres unmarked) [compound 76, 1-imino-1-oxo-3-(tetrahydropyran-4-ylmethyl)-2,3-dihydro-1H-1λ^6-benzothiazole-6-sulfonic acid (4-ethylphenyl)isobutylamide]
> 1 | CCc1ccc(N(CC(C)C)S(=O)(=O)c2ccc(OCc3ccnc(OC)c3)c(S(C)(=N)=O)c2)cc1 (centres unmarked) [compound 77, N-(4-ethylphenyl)-N-isobutyl-4-((2-methoxypyridin-4-yl)methoxy)-3-(S-methylsulfonimidoyl)benzenesulfonamide]
> 1 | CCc1ccc(N(CC(C)C)S(=O)(=O)c2ccc(OC[C@H]3CNC(=O)O3)c(S(C)(=N)=O)c2)cc1 (stereo partly drawn) [compound 79, N-(4-ethylphenyl)-N-isobutyl-3-(S-methylsulfonimidoyl)-4-(((R)-2-oxooxazolidin-5-yl)methoxy)benzenesulfonamide]
> 1 | CCc1ccc(N(CC(C)C)S(=O)(=O)c2ccc(Oc3ccc(C#N)cc3)c(S(C)(=N)=O)c2)cc1 (centres unmarked) [compound 80, 4-(4-cyanophenoxy)-N-(4-ethylphenyl)-N-isobutyl-3-(S-methylsulfonimidoyl)benzenesulfonamide]
0.1 to 1 | CCc1ccc(N(CC(C)C)S(=O)(=O)c2ccc(NCC3CNC(=O)O3)c(S(C)(=N)=O)c2)cc1 (centres unmarked) [compound 82, N-(4-ethylphenyl)-N-isobutyl-3-(S-methylsulfonimidoyl)-4-(((2-oxooxazolidin-5-yl)methyl)amino)benzenesulfonamide]
> 1 | CCc1ccc(N(CC(C)C)S(=O)(=O)c2ccc(NC3CCS(=O)(=O)CC3)c(S(C)(=N)=O)c2)cc1 (centres unmarked) [compound 83, 4-((1,1-dioxidotetrahydro-2H-thiopyran-4-yl)amino)-N-(4-ethylphenyl)-N-isobutyl-3-(S-methylsulfonimidoyl)benzenesulfonamide]
0.1 to 1 | CCc1ccc(N(CC(C)C)S(=O)(=O)c2ccc(NC3CCS(=O)(=O)C3)c(S(C)(=N)=O)c2)cc1 (centres unmarked) [compound 86, 4-((1,1-dioxidotetrahydrothiophen-3-yl)amino)-N-(4-ethylphenyl)-N-isobuytl-3-(S-methylsulfonimidoyl)benzenesulfonamide]
0.1 to 1 | CCc1ccc(N(CC(C)C)S(=O)(=O)c2ccc(NCC3CC4(COC4)C3)c(S(C)(=N)=O)c2)cc1 (centres unmarked) [compound 95, 4-(((2-oxaspiro[3.3]heptan-6-yl)methyl)amino)-N-(4-ethylphenyl)-N-isobutyl-3-(S-methylsulfonimidoyl)benzenesulfonamide]
0.1 to 1 | CCc1ccc(N(CC(C)C)S(=O)(=O)c2ccc(NCc3c(C)noc3C)c(S(C)(=N)=O)c2)cc1 (centres unmarked) [compound 97, 4-(((3,5-dimethylisoxazol-4-yl)methyl)amino)-N-(4-ethylphenyl)-N-isobutyl-3-(S-methylsulfonimidoyl)benzenesulfonamide]
